The conditions of data set [1]: DTA.
Data set [2] is described as follows: Molar enthalpy of transition or fusion. As to conditions: DSC.

Experimental findings from the NIST ThermoML archive (doi:10.1016/j.tca.2006.06.022) are described below.

SMILES strings stand for the structures. Numbers after ± are expanded uncertainties.

Regarding `CCCCCCCCCCCCCCCCCCCCCCCCCCCCCCCCCCCCCCCCCC` [dotetracontane], the Triple point temperature in data set [1] (Crystal 1) is reported as 357.3 ± 0.1 K; in data set [1] (Crystal 2), 348.6 ± 0.1 K; in data set [1] (Crystal 3) it was 344.6 ± 0.1 K. Besides, the “Molar enthalpy of transition or fusion” value in data set [2] (Crystal 1) was 39.7 ± 0.813 kcal/mol; in data set [2] (Crystal 2) it was 2.02 ± 0.0574 kcal/mol; in data set [2] (Crystal 3) it was 0.504 ± 0.0287 kcal/mol.
Take `CCCCCCCCCCCCCCCCCCCCCCCCCCCCCCCCCCCC` [hexatriacontane]: the Triple point temperature in data set [1] (Crystal 1) stood at 349.2 ± 0.1 K; in data set [1] (Crystal 2), 347.1 ± 0.1 K; in data set [1] (Crystal 3), 346.8 ± 0.1 K; in data set [1] (Crystal 4), 343.6 ± 0.1 K. Also, the “Molar enthalpy of transition or fusion” value amounted to 24.5 ± 0.502 kcal/mol in data set [2] (Crystal 1), 6.82 ± 0.153 kcal/mol in data set [2] (Crystal 2), 3.59 ± 0.0884 kcal/mol in data set [2] (Crystal 3) and 0.112 ± 0.0208 kcal/mol in data set [2] (Crystal 4).
Regarding `CCCCCCCCCCCCCCCCCCCCCCCCCCCCCCCCCC` [tetratriacontane], the Triple point temperature in data set [1] (Crystal 1) is listed as 346.1 ± 0.1 K; in data set [1] (Crystal 2), 343.5 ± 0.1 K; in data set [1] (Crystal 3) it was 342.8 ± 0.1 K. Also, the “Molar enthalpy of transition or fusion” value in data set [2] (Crystal 1) stood at 22.9 ± 0.478 kcal/mol; in data set [2] (Crystal 2), 11.2 ± 0.239 kcal/mol; in data set [2] (Crystal 3) it was 0.0968 ± 0.0203 kcal/mol.
For the compound `CCCCCCCCCCCCCCCCCCCCCCCCCCCCCCCCCCCCCCCC` [tetracontane], the Triple point temperature in data set [1] (Crystal 1) amounted to 354.6 ± 0.1 K; in data set [1] (Crystal 2) it was 347.7 ± 0.1 K; in data set [1] (Crystal 3), 345 ± 0.1 K. Moreover, the “Molar enthalpy of transition or fusion” value in data set [2] (Crystal 1) came out at 34.4 ± 0.717 kcal/mol; in data set [2] (Crystal 2) it was 2.05 ± 0.0574 kcal/mol; in data set [2] (Crystal 3), 0.601 ± 0.0311 kcal/mol.
